The supplement of paper PMC10307832

Legend:
Assay in all cases: relative viability (nuclei count vs DMSO), 5 days (fraction); higher = more cells survive
Ponatinib + Crizotinib = compound: Cc1ccc(C(=O)Nc2ccc(CN3CCN(C)CC3)c(C(F)(F)F)c2)cc1C#Cc1cnc2cccnn12 [Ponatinib] + C[C@@H](Oc1cc(-c2cnn(C3CCNCC3)c2)cnc1N)c1c(Cl)ccc(F)c1Cl [Crizotinib] (partner 1 µM)
Procedure, shortened: (§1)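 Lung cancer cell lines, seeded in 1536-well plates, were treated the following day by pin tool with a single drug or with five library-drug doses (not always all listed) in √10 steps on top of a fixed anchor-drug dose. Cells were fixed and nuclei stained in one step after 5 days, and nuclei were counted. Relative viability is the nuclei count for treated wells divided by that for vehicle wells, reported as medians of duplicate plates.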

Pazopanib + Tozasertib = compound: Cc1ccc(Nc2nccc(N(C)c3ccc4c(C)n(C)nc4c3)n2)cc1S(N)(=O)=O [Pazopanib] + Cc1cc(Nc2cc(N3CCN(C)CC3)nc(Sc3ccc(NC(=O)C4CC4)cc3)n2)n[nH]1 [Tozasertib] (partner 0.1 µM)
Procedure, shortened: as §1

Pazopanib + Vorinostat = compound: Cc1ccc(Nc2nccc(N(C)c3ccc4c(C)n(C)nc4c3)n2)cc1S(N)(=O)=O [Pazopanib] + O=C(CCCCCCC(=O)Nc1ccccc1)NO [Vorinostat] (partner 1 µM)
Procedure, shortened: as §1

Ponatinib + Decitabine = compound: Cc1ccc(C(=O)Nc2ccc(CN3CCN(C)CC3)c(C(F)(F)F)c2)cc1C#Cc1cnc2cccnn12 [Ponatinib] + Nc1ncn([C@H]2C[C@H](O)[C@@H](CO)O2)c(=O)n1 [Decitabine] (partner 2 µM)
Procedure, shortened: as §1

Cell Line	relative viability (Ponatinib + Crizotinib; first compound 0.002 µM)	relative viability (Ponatinib + Crizotinib; first compound 0.006325 µM)	relative viability (Ponatinib + Crizotinib; first compound 0.06325 µM)	relative viability (Ponatinib + Crizotinib; first compound 0.2 µM)	relative viability (Pazopanib + Tozasertib; first compound 0.01 µM)	relative viability (Pazopanib + Tozasertib; first compound 0.03162 µM)	relative viability (Pazopanib + Tozasertib; first compound 0.1 µM)	relative viability (Pazopanib + Tozasertib; first compound 0.3162 µM)	relative viability (Pazopanib + Tozasertib; first compound 1 µM)	relative viability (Pazopanib + Vorinostat; first compound 0.03162 µM)	relative viability (Pazopanib + Vorinostat; first compound 0.1 µM)	relative viability (Pazopanib + Vorinostat; first compound 0.3162 µM)	relative viability (Pazopanib + Vorinostat; first compound 1 µM)	relative viability (Ponatinib + Decitabine; first compound 0.002 µM)	relative viability (Ponatinib + Decitabine; first compound 0.006325 µM)	relative viability (Ponatinib + Decitabine; first compound 0.06325 µM)	relative viability (Ponatinib + Decitabine; first compound 0.2 µM)	relative viability (Pazopanib + Vorinostat; first compound 0.01 µM)
LU99A	0.512	0.53	0.564	0.59	0.272	0.3	0.277	0.262	0.233	0.493	0.459	0.545	0.554	0.803	0.968	0.992	0.789	
NCI-H1355	0.989	1.06	1.16	1.15	0.582	0.579	0.513	0.55	0.553	0.632	0.696	0.643	0.651	0.335	0.355	0.399	0.346	0.488
HCC-78	0.291	0.322	0.447	0.312	0.334	0.429	0.472	0.517	0.415	0.455	0.433	0.412	0.446	0.653	0.757	0.668	0.577	
NCI-H1563	0.843	0.792	0.921	0.843														
HCC-15	0.828	0.843	0.858	0.802	0.435	0.502	0.411	0.394	0.37	0.906	0.867	0.893	0.791	0.666	0.671	0.744	0.634	0.878
EKVX	0.789	0.995	1.09	1.02	0.355	0.383	0.435	0.422	0.448	0.731	0.79	0.742	0.604	0.329	0.366	0.378	0.357	0.674
NCI-H2087	0.669	0.654	0.839	0.853	0.298	0.27	0.279	0.281	0.256	0.642	0.704	0.733	0.317	0.186	0.294	0.338	0.264	0.945
LK-2	0.26	0.217	0.234	0.269		0.178	0.201	0.169	0.174	0.26	0.252	0.236	0.235	0.301	0.312	0.273	0.274	0.201
NCI-H1437	0.899	0.957	0.967	0.763	0.414	0.42	0.408	0.412	0.375	0.778	0.82	0.762	0.75	0.498	0.548	0.606	0.593	0.833
COR-L23	0.525	0.588	0.619	0.568	0.236	0.173	0.202	0.214	0.152	0.5	0.424	0.508	0.514	0.391	0.427	0.504	0.424	0.446
